Experiment [1] concerns the target His-GST-TVMV-hRIPK1(1-324) (Homo sapiens (Human), UniProt Q13546). Briefly: RIPK1 HTRF Binding Assay. To be noted: HTRF binding, 1 h at rt; read-out: RIPK1 (IC50). A digest of the protocol:
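HTRF probe-displacement binding: 1 nM His-GST-TVMV-hRIPK1(1-324) (baculovirus construct), 90.6 nM probe, 0.2 nM anti-GST-Tb in 20 mM HEPES, 10 mM MgCl2, 0.015% Brij-35, 4 mM DTT, 0.05 mg/mL BSA. Incubated 1 h at rt; FRET 520/495 nm ratio, inhibition relative to DMSO-only wells.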
(Time-resolved FRET reads energy transfer from a long-lived donor to a nearby acceptor.)

In experiment [2] the test system is MLKL phosphorylation in HT29-L23 human colorectal adenocarcinoma cells. The experiment can be described thus: MLKL Phosphorylation High-Content Assay. Format: cell-based. To be noted: 6 h, necroptosis induced with TNFα, SMAC mimetic and Z-VAD, read-out: pMLKL (IC50). A digest of the protocol:
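HT29-L23 cells pretreated 30 min at 37 °C with compound (6.25 to 0.106 μM final), then necroptosis induced with TNFα 35 ng/mL, SMAC mimetic 700 nM and Z-VAD 140 nM for 6 h. Fixed cells immunostained for MLKL pS358 and imaged; IC50 and Ymax from 4-parameter logistic fit.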

Structures can show the parent of a compound that is named as a salt. Where two headings read alike, the source gives them in different places.

The term IC50 denotes the concentration needed to halve the response being measured.

Sequence of His-GST-TVMV-hRIPK1(1-324) (Q13546 1-324): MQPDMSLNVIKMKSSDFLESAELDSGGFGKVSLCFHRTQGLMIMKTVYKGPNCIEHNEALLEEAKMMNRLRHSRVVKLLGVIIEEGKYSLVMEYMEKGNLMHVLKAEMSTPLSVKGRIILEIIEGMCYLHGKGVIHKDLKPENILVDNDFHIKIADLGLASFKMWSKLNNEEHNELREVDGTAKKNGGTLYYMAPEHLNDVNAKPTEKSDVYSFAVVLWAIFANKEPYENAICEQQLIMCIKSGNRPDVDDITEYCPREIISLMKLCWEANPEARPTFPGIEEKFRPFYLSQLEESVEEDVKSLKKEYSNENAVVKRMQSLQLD

For `CC(=O)Nc1cn2nc(-c3cc(C(=O)NCc4cc(F)ccc4OC(F)(F)F)cnc3Cl)ccc2n1` [Example 321, 6-chloro-5-{2-acetamidoimidazo[1,2-b]pyridazin-6-yl}-N-{[5-fluoro-2-(trifluoromethoxy)phenyl]methyl}pyridine-3-carboxamide], the results for the half-inhibitory concentration (IC50) in experiment [1] and in experiment [2] (Homo sapiens) were 44 nM and 386 nM, respectively.

Take `CC(=O)Nc1cn2nc(-c3cnc(C)c(C(=O)NCc4ccccc4OCC(F)(F)F)c3)ccc2n1` [Example 193, 5-{2-acetamidoimidazo[1,2-b]pyridazin-6-yl}-2-methyl-N-{[2-(2,2,2-trifluoroethoxy)phenyl]methyl}pyridine-3-carboxamide]: the results for the IC50 in experiment [1] and in experiment [2] (Homo sapiens) were 56 nM and 61 nM, respectively.

As for `COc1ncc(-c2ccc3nc(NC(C)=O)c(C)n3n2)cc1C(=O)NCCC(C)c1ccccc1` (stereo not drawn) [Example 256, 5-{2-acetamido-3-methylimidazo[1,2-b]pyridazin-6-yl}-2-methoxy-N-(3-phenylbutyl)pyridine-3-carboxamide, TFA], the IC50 in experiment [1] came out at 9 nM; in experiment [2] (Homo sapiens), 27 nM.

For `[2H]C([2H])(NC(=O)c1cc(-c2ccc3nc(NC(C)=O)cn3n2)c(C)nc1C)c1cc(C(F)(F)F)ccc1F` [Example 75, 5-{2-acetamidoimidazo[1,2-b]pyridazin-6-yl}-N-{[2-fluoro-5-(trifluoromethyl)phenyl](deutero)methyl}-2,6-dimethylpyridine-3-carboxamide], the half-maximal inhibitory concentration (IC50) was found to be 11 nM in experiment [1] and 32 nM in experiment [2] (Homo sapiens).

`CC(=O)Nc1cn2nc(-c3cc(C(=O)NCc4cccnc4OCC4CCCC4)c(C)nc3C)ccc2n1` [Example 84, N-{[2-(cyclopentylmethoxy)pyridin-3-yl]methyl}-5-{2-acetamidoimidazo[1,2-b]pyridazin-6-yl}-2,6-dimethylpyridine-3-carboxamide]: the concentration for half-maximal inhibition (IC50) in experiment [1] turned out to be 19 nM; in experiment [2] (Homo sapiens), 26 nM.

Turning to `CC(=O)Nc1cn2nc(-c3cc(C(=O)NCc4cccc(F)c4OC4C[C@@H](C)O[C@@H](C)C4)c(C)nc3C)ccc2n1` (stereo partly drawn) [Example 63, N-[(2-{[(2R,6S)-2,6-dimethyloxan-4-yl]oxy}-3-fluorophenyl)methyl]-5-{2-acetamidoimidazo[1,2-b]pyridazin-6-yl}-2,6-dimethylpyridine-3-carboxamide], the IC50 in experiment [1] came out at 149 nM; in experiment [2] (Homo sapiens), 340 nM.

For `COc1ccc(F)c(CNC(=O)c2cc(-c3ccc4nc(NC(C)=O)cn4n3)c(C)nc2C)c1` [Example 37, 5-(2-acetamidoimidazo[1,2-b]pyridazin-6-yl)-N-(2-fluoro-5-methoxybenzyl)-2,6-dimethylnicotinamide], the results for the concentration for half-maximal inhibition (IC50) in experiment [1] and in experiment [2] (Homo sapiens) were 67 nM and 208 nM, respectively.

Take `CC(=O)Nc1cn2nc(-c3cnc(Cl)c(C(=O)NC(C)c4ccccc4OC(F)(F)F)c3)ccc2n1` (stereo not drawn) [Example 268, 2-chloro-5-{2-acetamidoimidazo[1,2-b]pyridazin-6-yl}-N-{1-[2-(trifluoromethoxy)phenyl]ethyl}pyridine-3-carboxamide]: the 50% inhibitory concentration (IC50) in experiment [1] is 46 nM; in experiment [2] (Homo sapiens) it was 73 nM.

`[2H]C([2H])([2H])Oc1nc(C)c(-c2ccc3nc(NC(C)=O)cn3n2)cc1C(=O)NCc1cccc(F)c1OC1C[C@@H](C)O[C@@H](C)C1` (stereo partly drawn) [Example 168, N-[(2-{[(2R,6S)-2,6-dimethyloxan-4-yl]oxy}-3-fluorophenyl)methyl]-5-{2-acetamidoimidazo[1,2-b]pyridazin-6-yl}-2-(deutero)methoxy-6-methylpyridine-3-carboxamide]: the concentration for half-maximal inhibition (IC50) was 21 nM in experiment [1] and 67 nM in experiment [2] (Homo sapiens).

For `Cc1ncc(-c2ccc3nc(NC(=O)CN4CC(F)(F)C4)cn3n2)cc1C(=O)NCC[C@@H](O)c1ccc(Cl)cc1` [Example 344, N-[(3R)-3-(4-chlorophenyl)-3-hydroxypropyl]-5-{2-[2-(3,3-difluoroazetidin-1-yl)acetamido]imidazo[1,2-b]pyridazin-6-yl}-2-methylpyridine-3-carboxamide], the IC50 turned out to be 266 nM in experiment [1] and 37 nM in experiment [2] (Homo sapiens).

As to `COc1ncc(-c2ccc3nc(NC(C)=O)cn3n2)cc1C(=O)NCc1ccccc1OCC1CCCC1` [Example 164, N-{[2-(cyclopentylmethoxy)phenyl]methyl}-5-{2-acetamidoimidazo[1,2-b]pyridazin-6-yl}-2-methoxypyridine-3-carboxamide], the results for the half-inhibitory concentration (IC50) in experiment [1] and in experiment [2] (Homo sapiens) were 10 nM and 32 nM, respectively.

For the compound `COc1ncc(-c2ccc3nc(NC(C)=O)cn3n2)cc1C(=O)NCc1cccc(OC(F)(F)F)c1` [Example 126, 5-{2-acetamidoimidazo[1,2-b]pyridazin-6-yl}-2-methoxy-N-{[3-(trifluoro-methoxy)phenyl]methyl}pyridine-3-carboxamide], the figures for the IC50 in experiment [1] and in experiment [2] (Homo sapiens) were 73 nM and 78 nM, respectively.

For the compound `COc1ncc(-c2ccc3nc(NC(=O)CC#N)cn3n2)cc1C(=O)NCc1cc(F)cc(F)c1OCC1CC1` [Example 7, 5-[2-(2-cyanoacetamido)imidazo[1,2-b]pyridazin-6-yl]-N-{[2-(cyclopropylmethoxy)-3,5-difluorophenyl]methyl}-2-methoxypyridine-3-carboxamide], the IC50 was determined as 14 nM in experiment [1] and 38 nM in experiment [2] (Homo sapiens).

`COc1ncc(-c2ccc3nc(NC(C)=O)cn3n2)cc1C(=O)NCc1ccccc1CN1CCOCC1` [Example 113, 5-{2-acetamidoimidazo[1,2-b]pyridazin-6-yl}-2-methoxy-N-({2-[(morpholin-4-yl)methyl]phenyl}methyl)pyridine-3-carboxamide, 2 TFA]: the figures for the concentration for half-maximal inhibition (IC50) in experiment [1] and in experiment [2] were 38 nM and 298 nM, respectively.

Take `Cc1ncc(-c2ccc3nc(NC(=O)CN4CCN(C)CC4)cn3n2)cc1C(=O)N[C@H](C)c1cc(OC(F)(F)F)ccc1F` [Example 336, N-[(1R)-1-[2-fluoro-5-(trifluoromethoxy)-phenyl]ethyl]-2-methyl-5-{2-[2-(4-methylpiperazin-1-yl)acetamido]imidazo[1,2-b]pyridazin-6-yl}pyridine-3-carboxamide]: the IC50 in experiment [1] stood at 19 nM; in experiment [2] (Homo sapiens), 8 nM.

For `COc1nc(C)c(-c2ccc3nc(NC(C)=O)cn3n2)cc1C(=O)NC(C)c1ccccc1OC(F)(F)F` (stereo not drawn) [Example 290, 5-{2-acetamidoimidazo[1,2-b]pyridazin-6-yl}-2-methoxy-6-methyl-N-{1-[2-(trifluoromethoxy)phenyl]ethyl}pyridine-3-carboxamide], the half-maximal inhibitory concentration (IC50) in experiment [1] amounted to 7 nM; in experiment [2] it was 3 nM.

Consider `COc1nc(C)c(-c2ccc3nc(NC(C)=O)cn3n2)cc1C(=O)NCc1cccc(OC(F)(F)F)c1` [Example 319, 5-{2-acetamidoimidazo[1,2-b]pyridazin-6-yl}-2-methoxy-6-methyl-N-{[3-(trifluoromethoxy)phenyl]methyl}pyridine-3-carboxamide], for which the IC50 came out at 15 nM in experiment [1] and 29 nM in experiment [2] (Homo sapiens).

For `[2H]C([2H])([2H])Oc1cc(C)c(-c2ccc3nc(NC(C)=O)cn3n2)cc1C(=O)NCc1cc(OC(F)(F)F)ccc1F` [Example 417], the figures for the IC50 in experiment [1] and in experiment [2] (Homo sapiens) were 4 nM and 9 nM, respectively.

For `COc1ncc(-c2ccc3nc(NC(C)=O)cn3n2)cc1C(=O)NCc1ccccc1COC(C)C` [Example 114, 5-{2-acetamidoimidazo[1,2-b]pyridazin-6-yl}-2-methoxy-N-({2-[(propan-2-yloxy)methyl]phenyl}meth-yl)pyridine-3-carboxamide, TFA], the values for the IC50 in experiment [1] and in experiment [2] were 8 nM and 33 nM, respectively.

With `CC(=O)Nc1cn2nc(-c3cc(F)c(C)c(C(=O)NCc4cccc(OC(F)(F)F)c4F)c3)ccc2n1` [Example 361, 5-{2-acetamidoimidazo [1,2-b]pyridazin-6-yl}-3-fluoro-N-{[2-fluoro-3-(trifluoromethoxy)phenyl]methyl}-2-methylbenzamide], the IC50 was 42 nM in experiment [1] and 135 nM in experiment [2] (Homo sapiens).

In the case of `Cc1ncc(-c2ccc3nc(NC(=O)CN4CCC(F)(F)CC4)cn3n2)cc1C(=O)N[C@H](C)c1cc(OC(F)(F)F)ccc1F` [Example 334, 5-{2-[2-(4,4-difluoropiperidin-1-yl)acetamido]-imidazo[1,2-b]pyridazin-6-yl}-N-[(1R)-1-[2-fluoro-5-(trifluoromethoxy)-phenyl]ethyl]-2-methylpyridine-3-carboxamide], the half-maximal inhibitory concentration (IC50) in experiment [1] was found to be 15 nM; in experiment [2] (Homo sapiens), 10 nM.

With “5-{2-acetamidoimidazo[1,2-b]pyridazin- 6-yl}-N-{[2-fluoro-5- (trifluoromethoxy)phenyl]- (deutero)methyl}-2-methoxy-6- methylpyridine-3-carboxamide [Example 282]”, the figures for the IC50 in experiment [1] and in experiment [2] were 10 nM and 8 nM, respectively.

For `CC(=O)Nc1nc2ccc(-c3cnc(C)c(C(=O)NCc4cccc(OC(F)(F)F)c4)c3)nn2c1C` [Example 251, 5-{2-acetamido-3-methylimidazo[1,2-b]pyridazin-6-yl}-2-methyl-N-{[3-(trifluoromethoxy)phenyl]methyl}pyridine-3-carboxamide], the results for the IC50 in experiment [1] and in experiment [2] (Homo sapiens) were 53 nM and 305 nM, respectively.

Take `COc1ncc(-c2ccc3nc(NC(C)=O)cn3n2)cc1C(=O)NCc1ncccc1OC(C)C1CC1` (stereo not drawn) [Example 136, N-{[3-(1-cyclopropylethoxy)pyridin-2-yl]methyl}-5-{2-acetamidoimidazo[1,2-b]pyridazin-6-yl}-2-methoxypyridine-3-carboxamide]: the IC50 was found to be 17 nM in experiment [1] and 100 nM in experiment [2] (Homo sapiens).

The record behind these values is patent US11440913B2, “Aminoimidazopyridazines as kinase inhibitors” (BRISTOL-MYERS SQUIBB COMPANY, priority 2017, dated 2022).
